Test results published in patent US11896010B2, “Uracil compound and use thereof” (Sumitomo Chemical Company, Limited, priority 2018, dated 2024).

How the values were obtained:
Format in all cases: in vivo
Amaranthus retroflexus = assay: Test Example 1: post-emergence foliage spray pot test in greenhouse, weed control efficacy; details: for weed control efficacy score (0 to 100), Amaranthus retroflexus: foliar spray 204 L/ha on plants grown 15 days, evaluated after 11 days, 0 = same as untreated, 100 = completely dead; for weed control efficacies against Amaranthus retroflexus (in words): summary of the test at 80 and 40 gai/ha
Protocol: (§1) Next, weed control efficacies of the Compound A and safety (phytotoxicity) of the Compound A against a useful plant are shown by a Test Example.
(§2) Here the “untreated group” represents a group where the same treatment procedure as that of the treated group except not using the Compound A is done.
(§3) A plastic pot was filled with soil, thereto Amaranthus retroflexus, Ipomoea hederacea, and corn were seeded, and they were grown in a greenhouse for 15 days. Separately, a prescribed amount of a formulation prepared according to the process described in the Formulation Example 1 was diluted with water comprising 1% of Agridex (registered trademark) to obtain a diluent. Said diluent was homogeneously sprayed from above of said plants in a ratio of 204 L/ha such that the applied amount of the Compound A was 80 gai/ha or 40 gai/ha. Then, said plants were grown in a greenhouse for 11 days and evaluated according to the above criteria.
(§4) The Compound B was used instead of the Compound A to carry out the same test as the Test Example 1.

Ipomoea hederacea = assay: as above; details: for weed control efficacy score (0 to 100), Ipomoea hederacea: foliar spray 204 L/ha on plants grown 15 days, evaluated after 11 days, 0 = same as untreated, 100 = completely dead; for weed control efficacies against Ipomoea hederacea (in words): summary of the test at 80 and 40 gai/ha
Protocol: as §1, §2, §3, §4

corn = assay: Test Example 1: post-emergence foliage spray pot test in greenhouse, safety (phytotoxicity) against a useful plant; details: for phytotoxicity score (0 to 100), corn: foliar spray 204 L/ha on plants grown 15 days, evaluated after 11 days, 0 = same as untreated, 100 = completely dead
Protocol: as §1, §2, §3, §4

Row | Structure (SMILES) | weed control efficacy score (0 to 100), Amaranthus retroflexus (Amaranthus retroflexus; applied amount 40 gai/ha) | weed control efficacy score (0 to 100), Amaranthus retroflexus (Amaranthus retroflexus; applied amount 80 gai/ha) | weed control efficacies against Amaranthus retroflexus (in words) (Amaranthus retroflexus) | weed control efficacy score (0 to 100), Ipomoea hederacea (Ipomoea hederacea; applied amount 40 gai/ha) | weed control efficacy score (0 to 100), Ipomoea hederacea (Ipomoea hederacea; applied amount 80 gai/ha) | weed control efficacies against Ipomoea hederacea (in words) (Ipomoea hederacea) | phytotoxicity score (0 to 100), corn (corn; applied amount 40 gai/ha) | phytotoxicity score (0 to 100), corn (corn; applied amount 80 gai/ha) | phytotoxicity against corn (in words) (corn; summary of the test at 80 and 40 gai/ha) | phytotoxicity against corn (in words) (corn; in vivo)
1 | CCOC(=O)COc1ncccc1Oc1cc(-n2c(=O)cc(C(F)(F)F)n(C)c2=O)c(F)cc1Cl [Compound B] | 100 | 100 | high weed control efficacies | 100 | 100 | high weed control efficacies | 100 | 100 | high phytotoxicity | –
2 | CCOC(=O)COc1nc(-n2c(=O)cc(C(F)(F)F)n(C)c2=O)ccc1Oc1cc(-n2c(=O)cc(C(F)(F)F)n(C)c2=O)c(F)cc1Cl [Compound A] | 100 | 100 | high weed control efficacies | 95 | 100 | high weed control efficacies | – | – | – | low phytotoxicity
